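1) Cells in 96-well plates. 2) Compound, 48 h, 5 concentrations. 3) Linear interpolation between surrounding doses. 4) Unreached endpoint = highest concentration. The concentration for 50% growth inhibition is given as GI50. At the TGI there is no net growth.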

Among the test systems are SF-268 CNS; OVCAR-8 ovarian; ACHN renal; HCT-116 colon; SW-620 colon; NCI-H23 lung; SK-MEL-2 melanoma; SK-MEL-5 melanoma; SNB-75 CNS; OVCAR-4 ovarian.
Assay in all cases: NCI-60 cell line screen, 48 h

Consider `CC(=O)Nc1ccc(S(=O)(=O)N2C(=O)CCC2C(=O)Nc2ccc(Br)cc2)cc1` (stereo not given), for which the GI50 with SF-268 CNS is 2.76 µM; in the assay with OVCAR-8 ovarian, 2.6 µM; with ACHN renal, 2.13 µM; in the assay with HCT-116 colon, 1.74 µM; in the assay with SW-620 colon, 3.19 µM; in the assay on NCI-H23 lung it was 1.83 µM. In addition, the results for the GI50 in the assay on SK-MEL-2 melanoma, in the assay on SK-MEL-5 melanoma and in the assay on SNB-75 CNS were 4.05 µM, 1.56 µM and 1.81 µM, respectively. Moreover, the TGI is 21.9 µM in the assay with SF-268 CNS; 11.9 µM with OVCAR-8 ovarian; 12.2 µM with ACHN renal; more than 100 µM with HCT-116 colon; 27.6 µM in the assay with SW-620 colon; 16.6 µM in the assay on NCI-H23 lung. Also, the values for the TGI with SK-MEL-2 melanoma, with SK-MEL-5 melanoma and in the assay with SNB-75 CNS were 17.8 µM, 4.87 µM and 6.24 µM, respectively.

Turning to `CC(C)(C)NNC(=O)CCn1[nH]c(=O)c(Cl)c(Cl)c1=O`, the TGI in the assay with SF-268 CNS, with OVCAR-8 ovarian, with ACHN renal, in the assay with SW-620 colon, in the assay with NCI-H23 lung and in the assay with SK-MEL-2 melanoma was more than 100 µM in each case. The TGI in the assay with SNB-75 CNS and in the assay on OVCAR-4 ovarian was more than 100 µM each time.

On to `NC(N)=N/N=C/c1c(-c2ccsc2)nc2sccn12`, for which the GI50 in the assay on SF-268 CNS is 15.3 µM; in the assay with OVCAR-8 ovarian it was 31.1 µM; in the assay with ACHN renal, 16.9 µM; with HCT-116 colon it was 13.7 µM; in the assay with SW-620 colon, 18.3 µM; in the assay on NCI-H23 lung it was 13.5 µM. Also, the GI50 with SK-MEL-5 melanoma was 14.4 µM; with SNB-75 CNS it was 13.4 µM; in the assay on OVCAR-4 ovarian, 13.6 µM. Moreover, the TGI in the assay on SF-268 CNS came out at 29.4 µM; in the assay on OVCAR-8 ovarian it was 61.7 µM; with ACHN renal, 32 µM; with HCT-116 colon it was 27.2 µM; with SW-620 colon it was 43.1 µM; in the assay on NCI-H23 lung it was 26.4 µM. The TGI with SK-MEL-5 melanoma turned out to be 28.8 µM; in the assay on SNB-75 CNS, 26.4 µM; in the assay on OVCAR-4 ovarian, 27.1 µM.

Take `Cc1cc(Nc2ccc(NC(=O)c3ccc(Nc4ccnc5ccccc45)cc3)cc2)nc(N)n1`: the GI50 in the assay with ACHN renal was 21.6 µM; in the assay on SW-620 colon, 1.37 µM; in the assay with SK-MEL-2 melanoma, 5.56 µM; in the assay with SK-MEL-5 melanoma, 5.23 µM; with SNB-75 CNS, 12.2 µM. In addition, the TGI is more than 100 µM with ACHN renal; more than 100 µM with SW-620 colon; 94.7 µM with SK-MEL-2 melanoma; 49.9 µM in the assay with SK-MEL-5 melanoma; 43 µM with SNB-75 CNS.

With `CC(C)C(CCl)NC(=O)c1cccc(C(=O)N[C@H](CCl)C(C)C)n1` (stereo in doubt), the TGI in the assay on SF-268 CNS, in the assay with ACHN renal, in the assay with HCT-116 colon, with SW-620 colon, with NCI-H23 lung and in the assay on SK-MEL-5 melanoma was more than 100 µM each time. Further, the TGI with SNB-75 CNS and in the assay on OVCAR-4 ovarian was more than 100 µM in each case.

Take `CCOC(=O)C1=CN(C)C=C(C(=O)OCC)C1c1cc(Br)c(OCC)c(OC)c1`: the GI50 is more than 100 µM in the assay on SF-268 CNS; more than 100 µM with OVCAR-8 ovarian; more than 100 µM in the assay on ACHN renal; 25.9 µM in the assay with HCT-116 colon; 67.2 µM in the assay with SW-620 colon; more than 100 µM in the assay on NCI-H23 lung. Further, the values for the GI50 in the assay on SK-MEL-5 melanoma, in the assay with SNB-75 CNS and in the assay with OVCAR-4 ovarian were 49.2 µM, 20.8 µM and 12.5 µM, respectively. The TGI in the assay with SF-268 CNS, with OVCAR-8 ovarian, in the assay on ACHN renal, with HCT-116 colon, with SW-620 colon and with NCI-H23 lung was more than 100 µM in each case. Moreover, the TGI in the assay with SK-MEL-5 melanoma, in the assay on SNB-75 CNS and in the assay with OVCAR-4 ovarian was more than 100 µM throughout.

As for `CCC12CCCN(Cc3ccccc3)C1c1c(n(C)c3ccccc13)CC2` (stereo not given), the TGI with SF-268 CNS, with OVCAR-8 ovarian, in the assay on ACHN renal, in the assay with HCT-116 colon, in the assay on SW-620 colon and in the assay on NCI-H23 lung was more than 253 µM in each case. Besides, the TGI in the assay on SK-MEL-2 melanoma was more than 253 µM; in the assay on SK-MEL-5 melanoma, 184 µM.

Take `NC(=O)/C=C/C(=O)c1c(Cl)cccc1Cl`: the GI50 was 1.71 µM in the assay with SF-268 CNS; 1.75 µM in the assay with OVCAR-8 ovarian; 0.323 µM with ACHN renal; 0.476 µM in the assay on HCT-116 colon; 0.511 µM in the assay on SW-620 colon; 1.53 µM in the assay on NCI-H23 lung. For the same compound, the GI50 with SK-MEL-2 melanoma was 1.83 µM; in the assay with SK-MEL-5 melanoma it was 1.4 µM; in the assay with SNB-75 CNS, 1.61 µM. Further, the TGI in the assay on SF-268 CNS amounted to 3.21 µM; with OVCAR-8 ovarian, 3.27 µM; in the assay with ACHN renal, 0.853 µM; with SW-620 colon it was 1.04 µM; with NCI-H23 lung it was 3.01 µM; with SK-MEL-2 melanoma it was 4.01 µM. In addition, the TGI with SK-MEL-5 melanoma is 2.7 µM; in the assay with SNB-75 CNS, 2.96 µM.

Consider `Cc1ccc(S(=O)(=O)Nc2ccccc2C=O)cc1`, for which the TGI amounted to 34.1 µM in the assay on OVCAR-8 ovarian; 46.7 µM with ACHN renal; 28 µM in the assay on HCT-116 colon; 47.5 µM with SW-620 colon; 66.8 µM with NCI-H23 lung; 30.4 µM in the assay with SK-MEL-2 melanoma. The values for the TGI with SK-MEL-5 melanoma, in the assay with SNB-75 CNS and in the assay on OVCAR-4 ovarian were 25.1 µM, 57.7 µM and more than 100 µM, respectively.

For `O=C1CCC(Cl)=CC2CCCN12` (stereo not given), the TGI with OVCAR-8 ovarian, in the assay with ACHN renal, in the assay on HCT-116 colon, in the assay with SW-620 colon, in the assay on NCI-H23 lung and with SK-MEL-2 melanoma was more than 100 µM throughout. The TGI in the assay with SK-MEL-5 melanoma and in the assay with SNB-75 CNS was more than 100 µM throughout.

Regarding `Cc1ccc(SC2c3ccc(C)cc3Oc3nc(N)c(C#N)c(N)c32)cc1` (stereo not given), the GI50 is 1.83 µM in the assay on SF-268 CNS; 1.67 µM with OVCAR-8 ovarian; 1.63 µM in the assay with ACHN renal; 1.88 µM in the assay on HCT-116 colon; 1.84 µM in the assay with SW-620 colon; 1.84 µM in the assay on SK-MEL-2 melanoma. In addition, the results for the GI50 with SK-MEL-5 melanoma, in the assay with SNB-75 CNS and in the assay with OVCAR-4 ovarian were 1.64 µM, 1.5 µM and 1.8 µM, respectively. The TGI was found to be 4.06 µM in the assay with SF-268 CNS; 3.06 µM in the assay with OVCAR-8 ovarian; 2.99 µM with ACHN renal; 3.58 µM in the assay on HCT-116 colon; 3.84 µM in the assay on SW-620 colon; 3.71 µM with SK-MEL-2 melanoma. Further, the TGI was 3.1 µM in the assay with SK-MEL-5 melanoma, 4.53 µM in the assay on SNB-75 CNS and 3.29 µM with OVCAR-4 ovarian.

The values above are taken from PubChem BioAssay (NCI).
